Where two headings read alike, the source gives them in different places.
Experiments:
[1] = biological target: T1, FOXP3/FOXP3 homodimerization (GST-FOXP3 and FOXP3-His) (Homo sapiens, UniProt Q9BZS1); experiment: AlphaScreen FOXP3 homodimerization assay; assay type: biochemical; settings: GST-FOXP3 40 nM, FOXP3-His 300 nM
T1 construct: made in house; host or cells: E. coli
T1 sequence (Q9BZS1 1-421): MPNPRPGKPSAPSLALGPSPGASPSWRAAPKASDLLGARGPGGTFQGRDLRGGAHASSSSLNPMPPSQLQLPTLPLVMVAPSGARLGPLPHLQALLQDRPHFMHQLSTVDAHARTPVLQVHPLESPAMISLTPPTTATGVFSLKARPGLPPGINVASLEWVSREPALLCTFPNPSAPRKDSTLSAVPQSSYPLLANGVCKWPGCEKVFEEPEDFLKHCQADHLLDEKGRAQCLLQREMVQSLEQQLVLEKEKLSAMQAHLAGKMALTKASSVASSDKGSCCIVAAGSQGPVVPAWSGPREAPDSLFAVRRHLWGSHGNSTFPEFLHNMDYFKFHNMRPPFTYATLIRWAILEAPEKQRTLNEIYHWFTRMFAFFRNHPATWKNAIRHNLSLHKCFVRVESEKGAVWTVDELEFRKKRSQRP
Description: AML1 is required for IL-2 and IFN-γ gene expression in conventional CD4+ T cells and its interaction with FOXP3 is needed for the immunosuppressive activity of Tregs. On the other hand, it has been described that the leucine zipper region is necessary and sufficient to mediate FOXP3 homo-dimerization, which is required for its function as a transcriptional regulator [13, 15, 20]. Thus, since P60 binds to this FOXP3 intermediate region, we analyzed if it could act as a decoy molecule to inhibit FOXP3 homodimerization or the FOXP3-AML1 heterodimerization. The capacity of FOXP3 to homodimerize was measured using the […] assay platform AlphaScreen™ (Perkin Elmer). Previous protein-cross titration experiment using different concentrations of FOXP3-6His (from 1000 to 0 nM) and GST-FOXP3 (from 300 to 0 nM) allowed us to define the optimal protein concentrations to analyze FOXP3 homodimerization (Figure 2A). […] We also tested if GST tagged FOXP3 was able to interact with AML1 protein tagged with 6 His at the N-terminus. As shown in the cross titration experiments in Figure 2C, a specific FOXP3-AML1 heterodimerization was visualized as an increase in the AlphaScreen signal.
FOXP3/AML1 heterodimerization, as well as FOXP3/FOXP3 homodimerization were analyzed by Alphascreen technology according to the manufacturer's instructions (Perkin Elmer, Benelux) as previously described.

[2] = test system: CT26 tumor cells; settings: AH1 in IFA, P60 50 nanomol/mice/day i.p. day 0 to day 9, 5 × 10^5 cells; cited from earlier work
[3] = test system: murine Treg cells; assay type: cell-based, BALB/c mice
Description: Results shown in Figures 1–3 correspond to cell-free assays where peptides can interact directly with its corresponding protein partner. However, FOXP3 binding peptides need to enter into the cell in order to inhibit FOXP3 functions. Once we identified some mutants with higher capacity to bind FOXP3, we studied their capacity to inhibit the suppressor activity of natural Tregs in vitro. Thus, we activated effector T cells with anti-CD3 monoclonal antibody in the presence of Tregs, and analyzed the capacity of each peptide to restore T cell proliferation inhibited by Treg cells. […] Indeed, when results from the point-variant screening are represented as a heat map, it is clear that introduction of an alanine at positions 2, 5 and 11 improved activity of the original P60, whereas alanine mutations at positions 1, 7, 8, 9, 10 and 12 are detrimental (Figure 4C).
Isolation of murine CD4^+CD25^+, and CD4^+CD25^− T-cells was performed from murine spleen cells by using murine regulatory T-cell isolation kit (Miltenyi Biotec, Bergisch Gladbach, Germany) according to manufacturer's instructions. The purity of the resulting T-cell populations was confirmed to be > 95% by flow cytometry.
Inhibition of murine T regulatory cell function was measured in an in vitro assay of T-cell stimulation. CD25+ depleted spleen cells (10^5 cells/well) from BALB/c mice were stimulated in vitro with 2, 5 μg/ml of anti-mouse CD3 antibody (Pharmingen) in the presence/absence of purified Treg cells (10^4 cells/well). T-cell proliferation was measured 3 days later as previously described.

[4] = test system: CT26 tumor cells; experiment: AH1 vaccination and CT26 tumor challenge; assay type: in vivo, BALB/c mice; settings: AH1 in IFA, peptide 10 nanomol/mice/day i.p. 10 days, challenge 10^6 CT26 cells s.c. day 10
Description: In those experiments, BALB/c mice were immunized with peptide AH1 emulsified in IFA and treated daily with saline or with 50 nanomol/mice/day of peptide P60 i.p. from day 0 to day 9 after immunization. To study the efficacy of CM-1315, our optimized version of P60, mice immunized with AH1 were treated with 10 nanomol/mice/day of P60 or CM-1315 and challenged at day 10 by s.c. injection with 10^6 CT26 tumor cells (instead of 5 × 10^5 cells used in our previous study). As control, groups of mice were injected with AH1 alone or left untreated.
For tumor rejection experiments, Hepa-129 cells (10^6 cells/mouse), were injected subcutaneously (sc) in C3H/HeN mice (n = 6). Ten days later, when the tumor reached 5 mm in diameter, mice were randomly divided into different experimental groups. A group of mice were treated i.p. with anti-PD1 antibodies (50 μg/mouse). Antibody administration was repeated one week after this first administration. A group of mice treated with anti-PD1 also received the cyclic peptide CM-1215 from days 10 to 20 (50 μg/mice/day). Tumor size, presented as the average of two perpendicular diameters (millimetres), was measured at regular intervals. Mice were sacrificed when the mean tumor diameter was greater than 20 mm. […] Tumor size was monitored twice a week with a calliper and it was expressed according to the formula V = (length × width^2)/2. […]

Substance: H-RDFQSFRKMWPFFAM-OH [P60]
- Inhibition of FOXP3 homodimerization (in words) [1]: able to impair FOXP3 dimerization in a dose dependent manner
- Protection against CT26 tumor challenge (in words) [2]: protected mice from CT26 tumor challenge
- IC50 [3]: 38.3 µM
- Protection against CT26 tumor challenge (in words) [4]: only animals treated with CM-1315 remained protected

Reference: PMC5641083, “Blockage of FOXP3 transcription factor dimerization and FOXP3/AML1 interaction inhibits T regulatory cell activity: sequence optimization of a peptide inhibitor” (Oncotarget, 2017)
